This assay concerns drug-resistant Mycobacterium tuberculosis. The format is cell-based. Conditions: 10 micrograms per ml; seven days; strain resistant against PAS, streptomycin and isoniazid.

Where no end group is shown, it is not given here. [ ]: non-standard residue; d: D form. pGlu = O=C1CC[C@@H](C(=O)O)N1

For the substance “Ala-Arg-Leu-Asp-Val-Ala-Ser-Glu-Phe-Arg-Lys-Lys-Trp-Asn-Lys-Trp-Ala-Leu-Ser-Arg-NH2 (ARLDVASEFRKKWNKWALSR-NH2) [Peptide 1]”, the “inhibition of the growth of Mycobacterium tuberculosis” value came out at 100%.

Turning to “Pyr-Leu-Gly-Pro-Gln-Gly-Pro-Pro-His-Leu-Val-Ala-Asp-Pro-Ser-Lys-Lys-Gln-Gly-Pro-Trp-Leu-Glu-Glu-Glu-Glu-Glu-Ala-Tyr-Gly-Trp-Met-Asp-Phe-NH2 ([pGlu]LGPQGPPHLVADPSKKQGPWLEEEEEAYGWMDF-NH2; SMILES CSCC[C@H](NC(=O)[C@H](Cc1c[nH]c2ccccc12)NC(=O)CNC(=O)[C@H](Cc1ccc(O)cc1)NC(=O)[C@H](C)NC(=O)[C@H](CCC(=O)O)NC(=O)[C@H](CCC(=O)O)NC(=O)[C@H](CCC(=O)O)NC(=O)[C@H](CCC(=O)O)NC(=O)[C@H](CCC(=O)O)NC(=O)[C@H](CC(C)C)NC(=O)[C@H](Cc1c[nH]c2ccccc12)NC(=O)[C@@H]1CCCN1C(=O)CNC(=O)[C@H](CCC(N)=O)NC(=O)[C@H](CCCCN)NC(=O)[C@H](CCCCN)NC(=O)[C@H](CO)NC(=O)[C@@H]1CCCN1C(=O)[C@H](CC(=O)O)NC(=O)[C@H](C)NC(=O)[C@@H](NC(=O)[C@H](CC(C)C)NC(=O)[C@H](Cc1c[nH]cn1)NC(=O)[C@@H]1CCCN1C(=O)[C@@H]1CCCN1C(=O)CNC(=O)[C@H](CCC(N)=O)NC(=O)[C@@H]1CCCN1C(=O)CNC(=O)[C@H](CC(C)C)NC(=O)[C@@H]1CCC(=O)N1)C(C)C)C(=O)N[C@@H](CC(=O)O)C(=O)N[C@@H](Cc1ccccc1)C(N)=O) [Peptide 2]”, the “inhibition of the growth of Mycobacterium tuberculosis” value is recorded as 100%.

Source of the values: patent US20100184674A1, “PROADRENOMEDULLIN ALONE OR IN COMBINATION WITH BIG GASTRIN I AS A THERAPEUTIC AGENT” (priority 2007, published 2010).
